This test deals with T1, full-length AimR (wild-type) (Bacillus phage SPbeta, UniProt O64094).
T1 construct: 6xHis (C); made in house; host or cells: E. coli BL21 (DE3)
Kind of test: Isothermal titration calorimetry (ITC), AimP vs wild-type AimR. To be noted: wild-type full-length AimR 10–20 μM in cell, AimP 200–500 μM in syringe; 20 mM Tris-HCl (pH 8.0), 150 mM NaCl; 25°C; MicroCal iTC200; read-out: Kd (dissociation constant) for AimP binding. On the set-up: species or system Bacillus subtilis SPbeta phage. As for the experimental part:
DNA sequence encoding full-length AimR from Bacillus subtilis SPbeta phage was cloned into the pET-28a vector with a C-terminal 6×His-tag. The construct was introduced into E.coli BL21 (DE3) cells. The recombinant strains were cultured in LB medium at 37°C until the OD600 reached 0.8. After 16 h of induction with 0.5 mM IPTG at 16°C, the cells were harvested by centrifugation at 5, 000 rpm for 30 min at 4°C. The pelleted cells were then resuspended in the lysis buffer containing 50 mM Tris-HCl (pH 8.0) and 150 mM NaCl, and subsequently lysed by ultrasonication. The lysate was then centrifuged at 17,000 rpm for 30 min at 4°C. Protein purification was carried out following the routine procedure (Jiang et al., 2017). Briefly, the supernatant was loaded onto a Ni-NTA column (Qiagen). The target protein was eluted with 50 mM Tris-HCl (pH 8.0) containing 150 mM NaCl and 250 mM imidazole. The fractions containing purified protein were pooled, concentrated to 0.5 ml and loaded onto a Superdex200 increase column (GE Healthcare) equilibrated with buffer containing 20 mM Tris-HCl (pH 8.0) and 150 mM NaCl. All the AimR mutant proteins were purified following the same protocol.
ITC experiments were performed using a MicroCal iTC200 instrument (Malvern Instruments Ltd.). […] The resulting isotherms were recorded and fitted with Origin software (OriginLab).

Ends that are not written are not given here.

T1 sequence (O64094 whole entry): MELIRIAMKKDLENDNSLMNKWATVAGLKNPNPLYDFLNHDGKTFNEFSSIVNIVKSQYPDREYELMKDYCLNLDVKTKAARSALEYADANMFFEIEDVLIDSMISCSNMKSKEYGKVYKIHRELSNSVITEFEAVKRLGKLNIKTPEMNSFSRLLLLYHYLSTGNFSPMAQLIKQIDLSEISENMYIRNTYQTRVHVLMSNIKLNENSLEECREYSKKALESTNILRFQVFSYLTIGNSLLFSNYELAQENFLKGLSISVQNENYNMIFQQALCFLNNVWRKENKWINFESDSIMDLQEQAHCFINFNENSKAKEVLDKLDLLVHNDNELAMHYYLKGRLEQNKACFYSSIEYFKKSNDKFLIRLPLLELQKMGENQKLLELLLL

On to GMPRGA [AimP], for which the Kd – broadly, the equilibrium constant for the complex coming apart – was found to be 40 nM.

Values taken from article PMC6340889, “Structural basis of AimP signaling molecule recognition by AimR in Spbeta group of bacteriophages” (Protein & Cell, 2018).
